Source: PubChem BioAssay AID588376 (Sanford-Burnham Center for Chemical Genomics, 2011)
Active and inactive are the calls of the source. The rule behind the calls is not given here.

Biological target: Bcl-2-related protein A1 (Mus musculus) (UniProt Q07440)
Assay: Bfl-1 counter-screen inhibitors, SAR follow-up, counter-screen for UBC13 polyubiquitination inhibitor project, biochemical, mouse Bfl-1, set 2 (AID 588376)
Conditions: Bfl-1 biochemical counterscreen, dose response

Chain of Bcl-2-related protein A1 (Mus musculus) (Q07440 whole entry, looked up): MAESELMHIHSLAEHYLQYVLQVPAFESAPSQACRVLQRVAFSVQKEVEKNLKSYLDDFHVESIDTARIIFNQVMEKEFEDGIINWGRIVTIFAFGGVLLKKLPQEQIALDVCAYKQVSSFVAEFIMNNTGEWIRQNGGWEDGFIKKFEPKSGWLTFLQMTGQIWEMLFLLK

Row | IC50 | Structure (SMILES)
1 | > 100 µM (inactive) | Cc1nc2ccccc2n1C1CCN(CC(=O)Nc2ccccc2Oc2ccccc2)CC1
2 | > 100 µM (inactive) | COc1ccccc1N1CCN(CCCNC(=O)C2CCCN(c3ncnc4c3nc3n4CCCCC3)C2)CC1 (configuration not stated)
3 | > 100 µM (inactive) | O=C(NCCCN1CCN(c2ccccc2)CC1)C1CCCN(c2ncnc3c2nc2n3CCCCC2)C1 (configuration not stated)
4 | > 100 µM (inactive) | CC1(C)Cc2c(sc(NC(=O)C(=O)NCC3CCCO3)c2C(N)=O)CO1 (configuration not stated)
5 | > 100 µM (inactive) | O=C(C1CCN(c2ncnc3c2nc2n3CCCCC2)CC1)N1CCN(Cc2ccccc2)CC1
6 | > 100 µM (inactive) | O=C(C1CCN(c2ncnc3c2nc2n3CCCCC2)CC1)N1CCN(c2ccc(F)cc2)CC1
7 | > 100 µM (inactive) | COC(=O)c1c(NC(=O)C(=O)NCC2CCCO2)sc2c1CC(C)(C)OC2 (configuration not stated)
8 | > 100 µM (inactive) | O=C(CN1CCC(n2cnc3cc(F)ccc32)CC1)Nc1ccccc1Br
9 | > 100 µM (inactive) | CC1(C)Cc2c(sc(NC(=O)C(=O)NCCN3CCOCC3)c2C(N)=O)CO1
10 | > 100 µM (inactive) | COc1ccc(NC(=O)CN2CCC(n3c(C)nc4cc(F)ccc43)CC2)c(OC)c1
11 | > 100 µM (inactive) | Cc1cccc(N2CCN(CCCNC(=O)C3CCCN(c4ncnc5c4nc4n5CCCCC4)C3)CC2C)c1 (configuration not stated)
12 | > 100 µM (inactive) | O=C(CN1CCC(n2cnc3cc(F)ccc32)CC1)Nc1cccc(C(F)(F)F)c1
13 | > 100 µM (inactive) | COc1ccc(OC)c(NC(=O)CN2CCC(n3cnc4cc(F)ccc43)CC2)c1
14 | > 100 µM (inactive) | COc1ccc(OC)c(NC(=O)CN2CCC(n3c(C)nc4cc(F)ccc43)CC2)c1
15 | > 100 µM (inactive) | O=C(c1ccco1)N1CCN(C(=O)C2CCN(c3ncnc4c3nc3n4CCCCC3)CC2)CC1
16 | > 100 µM (inactive) | Cc1nc2cc(F)ccc2n1C1CCN(CC(=O)Nc2ccccc2)CC1

Second part, the compound before the results:

Row | Structure (SMILES) | IC50
17 | O=C(CN1CCC(n2c(C(F)(F)F)nc3cc(F)ccc32)CC1)Nc1ccc2c(c1)OCO2 | > 100 µM (inactive)
18 | Cc1ccc(C)c(N2CCN(CCCNC(=O)C3CCCN(c4ncnc5c4nc4n5CCCCC4)C3)CC2)c1 (configuration not stated) | > 100 µM (inactive)
19 | Cc1cccc(NC(=O)CN2CCC(n3cnc4cc(F)ccc43)CC2)c1C | > 100 µM (inactive)
20 | CCOc1ccccc1NC(=O)CN1CCC(n2cnc3cc(F)ccc32)CC1 | > 100 µM (inactive)
21 | O=C(C1CCN(c2ncnc3c2nc2n3CCCCC2)CC1)N1CCN(c2ncccn2)CC1 | > 100 µM (inactive)
22 | CC1(C)Cc2c(sc(NC(=O)C(=O)NCC3CCCO3)c2C(=O)O)CO1 (configuration not stated) | > 100 µM (inactive)
23 | CCOc1ccc(NC(=O)CN2CCC(n3cnc4cc(F)ccc43)CC2)cc1 | > 100 µM (inactive)
24 | O=C(CN1CCC(n2cnc3cc(C(F)(F)F)ccc32)CC1)Nc1ccc2c(c1)OCCO2 | > 100 µM (inactive)
25 | CC1(C)Cc2c(sc(NC(=O)C(=O)N3CCCC3)c2C(N)=O)CO1 | > 100 µM (inactive)
26 | O=C(C1CCN(c2ncnc3c2nc2n3CCCCC2)CC1)N1CCN(c2ccccn2)CC1 | > 100 µM (inactive)
27 | O=C(NCCCN1CCN(c2ccc(F)cc2)CC1)C1CCCN(c2ncnc3c2nc2n3CCCCC2)C1 (configuration not stated) | > 100 µM (inactive)
